According to ChEMBL document CHEMBL1156096, “Synthesis and antitubercular activity of 7-chloro-4-quinolinylhydrazones derivatives” (Bioorg Med Chem Lett, 2009):
In brackets after ≈: the same amount, converted by molar mass.

How the values were obtained:
[1] = Cytotoxicity against mouse J774 cells assessed as cell viability at 1 ug/ml by MTT assay; format: cell-based; conditions: read-out: Activity
[2] = tested on: Mycobacterium tuberculosis; test: Antimycobacterial activity against Mycobacterium tuberculosis H37Rv ATCC 27294 by microplate alamar blue assay; format: functional
[3] = Cytotoxicity against mouse J774 cells assessed as cell viability at 100 ug/ml by MTT assay; format: cell-based; conditions: read-out: Activity
[4] = Cytotoxicity against mouse J774 cells assessed as cell viability at 10 ug/ml by MTT assay; format: cell-based; conditions: read-out: Activity
[5] = Cytotoxicity against mouse J774 cells infected with Mycobacterium bovis BCG assessed as cell viability at 10 ug/ml by MTT assay; format: cell-based; conditions: read-out: Activity
[6] = Cytotoxicity against mouse J774 cells infected with Mycobacterium bovis BCG assessed as cell viability at 1 ug/ml by MTT assay; format: cell-based; conditions: read-out: Activity
[7] = Cytotoxicity against mouse J774 cells infected with Mycobacterium bovis BCG assessed as cell viability at 100 ug/ml by MTT assay; format: cell-based; conditions: read-out: Activity

Row | Structure (SMILES) | MIC [2] [µg/mL] | other results
1 | CC[C@@H](CO)NCCN[C@@H](CC)CO [ETHAMBUTOL] | 3.25 (≈ 15.9 µM) | viability at 1 ug/ml [1]: 100%
2 | O=[N+]([O-])c1ccccc1/C=N/Nc1ccnc2cc(Cl)ccc12 | > 100 | 
3 | O=[N+]([O-])c1cccc(/C=N/Nc2ccnc3cc(Cl)ccc23)c1 | > 100 | 
4 | Clc1ccc2c(N/N=C/c3ccccc3Br)ccnc2c1 | > 100 | 
5 | N#Cc1ccc(/C=N/Nc2ccnc3cc(Cl)ccc23)cc1 | > 100 | 
6 | Clc1ccc2c(N/N=C/c3ccccc3)ccnc2c1 | > 100 | 
7 | Oc1cccc(/C=N/Nc2ccnc3cc(Cl)ccc23)c1 | > 100 | 
8 | O=[N+]([O-])c1ccc(/C=N/Nc2ccnc3cc(Cl)ccc23)cc1 | > 100 | 
9 | Clc1ccc2c(N/N=C/c3cccc(Br)c3)ccnc2c1 | 3.12 (≈ 8.65 µM) | viability at 100 ug/ml [3]: 3%; viability at 10 ug/ml [4]: 60%; viability at 1 ug/ml [1]: 88%
10 | Fc1cccc(/C=N/Nc2ccnc3cc(Cl)ccc23)c1 | > 100 | 
11 | Clc1ccc2c(N/N=C/c3ccc(Br)cc3)ccnc2c1 | 2.5 (≈ 6.93 µM) | viability at 100 ug/ml [3]: 91%; viability at 10 ug/ml [5]: 100%; viability at 10 ug/ml [4]: 100%; viability at 1 ug/ml [1]: 100%; viability at 1 ug/ml [6]: 100%; viability at 100 ug/ml [7]: 85%
